In ChEMBL document CHEMBL1148640, “Biological evaluation, chelation, and molecular modeling studies of novel metal-chelating inhibitors of NF-kappaB-DNA binding: structure activity relationships” (J Med Chem, 2006):

test system: Radical scavenging activity; assay: Inhibition of superoxide radical scavenging activity; type: functional

`CC1=C/C(=C(/c2cc(C)c(O)c(C(=O)O)c2)c2c(Cl)ccc(S(=O)(=O)O)c2Cl)C=C(C(=O)O)C1=O` [CHROME AZUROL S] and `CC1=C/C(=C(/c2cc(C)c(O)c(C(=O)O)c2)c2ccccc2S(=O)(=O)O)C=C(C(=O)O)C1=O` [ERIOCHROME CYANINE R] cannot be ordered by IC50: over 250 µM for the first, over 250 µM for the second.

Compared with `O=c1c(Br)cc2c(-c3ccccc3S(=O)(=O)O)c3cc(Br)c(O)c(O)c3oc-2c1O` [BROMOPYROGALLOL RED], `O=c1ccc2c(-c3ccccc3S(=O)(=O)O)c3ccc(O)c(O)c3oc-2c1O` [PYROGALLOL RED] is 1.7-fold higher in IC50: 51.5 µM for the first, 88 µM for the second.

`O=C1C=C/C(=C(/c2ccc(O)c(O)c2)c2ccccc2S(=O)(=O)O)C=C1O` [PYROCATECHOL VIOLET] was tested, and the IC50 was 120 µM.
